The target in one assay is streptavidin (Streptomyces avidinii, UniProt P22629). Description: biochemical. In kind it is binding. The protocol:
LNA5 and LNA3 conjugates were hybridized by mixing 25 µL of LNA5 (2 µM) and 25 µL of LNA3 (2 µM) conjugates in water and heating to 70 °C for 5-10 min. After cooling down the solution to room temperature, 950 µL of 1x PBS was added to the LNA solution. The hybridized LNA conjugates were then tested via fluorescence polarization.
If the LNA conjugates were clicked together, they were diluted to 1 µM, 50 µL of a clicked conjugate was diluted with 950 µL 1x PBS and tested by fluorescence polarization.
Separately, a 16-point serial dilution of protein was performed in PBS in PCR tubes. 4 µL of the 50 nM conjugate was mixed with 4 µL of each protein dilution in black 384-well plates to a final volume of 8 µL. The plate was incubated for 30 min in the dark and centrifuged briefly to remove bubbles. Fluorescence anisotropy was measured at 535 nm. Data was fitted using Prism 10. Raw data from experimental FP measurements can be found in Supplementary Information, section 7.1.
7.1. Fluorescence Polarization
LNA5 and LNA3 conjugates were hybridized by mixing 25 µL of LNA5 (2 µM) and 25 µL of LNA3 (2 µM) conjugates in mQ and heating to 70 °C for 5-10 min. After cooling down the solution to room temperature, 950 µL of 1x PBS was added to the LNA solution. The hybridized LNA conjugates were then tested via fluorescence polarization experiment.
If the LNA conjugates were clicked together, they were diluted to 1 µM, 50 µL of a clicked conjugate could then be taken, diluted with 950 µL 1x PBS and tested via fluorescence […]
All other off-DNA fluoresceinated compounds were diluted to 50 nM in 1xPBS containing 5% […]
Separately, a 16-point serial dilution of protein was performed in PBS in PCR tubes. 4 µL of the 50 nM conjugate was mixed with 4 µL of each protein dilution in black 384-well plates to a final volume of 8 µL. The plate was incubated for 30 min in the dark and centrifuged briefly to remove bubbles. Fluorescence anisotropy was measured at 535 nm. Data was obtained and fitted using Prism 10.

The target of assay [1] is T1, placental alkaline phosphatase (PLAP) (Homo sapiens, UniProt P05187).
T1 construct: AviTag (biotinylated in vitro by BirA); 6xHis-tag; made in house; host or cells: Chinese hamster ovary (CHO) cells
T1 sequence (P05187 23-506 limits assumed): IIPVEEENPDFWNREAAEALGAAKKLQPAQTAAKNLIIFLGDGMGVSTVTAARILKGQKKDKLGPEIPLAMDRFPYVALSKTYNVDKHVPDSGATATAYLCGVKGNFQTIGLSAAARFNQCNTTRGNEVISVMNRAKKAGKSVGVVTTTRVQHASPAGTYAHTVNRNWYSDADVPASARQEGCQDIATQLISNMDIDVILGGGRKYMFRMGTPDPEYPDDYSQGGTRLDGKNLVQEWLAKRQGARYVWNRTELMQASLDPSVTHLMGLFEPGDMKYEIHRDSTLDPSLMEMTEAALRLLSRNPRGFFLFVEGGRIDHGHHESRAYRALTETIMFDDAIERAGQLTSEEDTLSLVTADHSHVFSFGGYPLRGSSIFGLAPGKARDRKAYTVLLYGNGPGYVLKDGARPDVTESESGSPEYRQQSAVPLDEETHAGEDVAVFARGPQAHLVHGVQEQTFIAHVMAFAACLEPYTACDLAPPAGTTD
Briefly: PLAP inhibition assay (pNPP substrate). The conditions noted are these: off-DNA. In kind it is biochemical. On the procedure: For the PLAP inhibition assay, 500 µM of inhibitor was used for a 16-point serial dilution in 10% DMSO/activation buffer in PCR tubes. Separately, a 12.5 nM solution of PLAP and a 4.5 mM solution of p-nitrophenylphosphate (pNPP) were prepared in activation buffer (see below). 8 µL of each inhibitor dilution was mixed with 16 µL of enzyme solution and 16 µL of pNPP solution and gently mixed. The assay was allowed to develop in the dark for 30 min (activation buffer pH10: 150 mM diethanolamine, 1 mM MgCl2, 60 mM ZnCl2 in water, pH 9.8) or 1 hour (activation buffer pH9: 150 mM Tris, 1 mM MgCl2, 60 mM ZnCl2 in water, pH 9.0). 50 µL of 2 M NaOH was then added to quench the reaction. Readout was performed to detect 405 nm vs 620 nm absorption. Data was fitted using Prism 10. Raw data from PLAP measurements can be found in Supplementary Information, section 7.2.2.
Human alpha-thrombin was obtained from Prolytix (Haematologic Technologies) - BioConnect Website and used in FP and inhibition assays. Biotinylated thrombin used for selections was obtained from Sigma Aldrich.
The recombinant human placental alkaline phosphatase (hPLAP) labelled with AviTag™ and 6xHis-tag was produced in Chinese hamster ovary (CHO) cells and was purified by Ni-NTA affinity chromatography and size-exclusion chromatography. The in-vitro biotinylation of the protein is mediated by BirA protein system. “Early-fraction” is the final material used for fluorescence polarization and inhibition experiments.
Figure S32: Quality characterization of recombinant hPLAP. A. The size exclusion chromatogram of purifying recombinant hPLAP expressed in CHO cells after Ni-NTA affinity chromatography purification and biotinylation. […] The absorbances at 450nm were measured with/without the presence of hPLAP and/or human PLAP antibody. […]
Protocol was adapted from Habeshian et al. 12. […] Fluorescence (excitation at 360 nm, emission at 465 nm) was measured every 3 min for 30 min. […] Data was measured in triplicate. […]
and gently mixed. […] Readout was performed to detect 405 nm vs 620 nm absorption. […]

[2] abbreviates: pH not printed with the values, pH 9 implied by b30, mean of n=3, read-out: IC50.

SMILES strings stand for the structures. pIC50, pKd: −log10 of the molar value. Like-named read-outs stand apart in the source and are kept apart here.

streptavidin, sequence (P22629 25-183): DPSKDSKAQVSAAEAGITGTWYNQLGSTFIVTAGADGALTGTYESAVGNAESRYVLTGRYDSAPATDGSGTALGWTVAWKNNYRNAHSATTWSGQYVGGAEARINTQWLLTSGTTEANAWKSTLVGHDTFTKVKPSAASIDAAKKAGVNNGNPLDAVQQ

By pKd is commonly meant the Kd on a negative log10 scale, so that one unit is a factor of ten. A high value points to a small Kd. On to `NC(=O)CSC[C@H](NC(=O)[C@@H](CC1CCCCC1)NC(=O)[C@@H]1CCCN1Cc1cn([C@H](CC2CCC2)C(=O)N2Cc3cc(C(=O)N[C@@H](CSCC(N)=O)C(=O)NCCCCCC(=O)N[C@@H](CCCCNC(=O)c4ccc5c(c4)C(=O)OC54c5ccc(O)cc5Oc5cc(O)ccc54)C(N)=O)sc3C2)nn1)C(N)=O` [Compound 8-L0], for which the pKd at streptavidin was 6.93.

Regarding `CC(C)C[C@@H]1C(=O)N2Cc3cc(sc3C2)C(=O)N[C@H](C(=O)NCCCCCC(=O)N[C@@H](CCCCNC(=O)c2ccc3c(c2)C(=O)OC32c3ccc(O)cc3Oc3cc(O)ccc32)C(N)=O)CSCc2cccc(c2)CSC[C@@H](C(N)=O)NC(=O)[C@@H](CC2CCCCC2)NC(=O)[C@@H]2CCCN2Cc2cn1nn2` [Compound 7-L3], on streptavidin, the pKd was < 5.30.

In the case of `CC(C)C[C@@H]1C(=O)N2Cc3cc(sc3C2)C(=O)N[C@H](C(=O)NCCCCCC(=O)N[C@@H](CCCCNC(=O)c2ccc3c(c2)C(=O)OC32c3ccc(O)cc3Oc3cc(O)ccc32)C(N)=O)CSC/C=C\CSC[C@@H](C(N)=O)NC(=O)[C@@H](CC2CCCCC2)NC(=O)[C@@H]2CCCN2Cc2cn1nn2` [Compound 7-L5], the negative logarithm of the Kd (pKd) on streptavidin is < 5.30.

In general, pIC50 refers to the negative decadic logarithm of the IC50, by convention in mol/L. Regarding `NC(=O)CSC[C@H](NC(=O)C[C@H](Cc1ccccc1Cl)NC(=O)[C@@H](N)Cc1ccccc1Cl)C(=O)NCCCCCC(=O)N[C@@H](CCCCNC(=S)Nc1ccc2c(c1)C(=O)OC21c2ccc(O)cc2Oc2cc(O)ccc21)C(N)=O` [Compound 21], the pIC50 in assay [1] (pH 10 (activation buffer pH 9.8), read-out: IC50 (determined fit)) is 4.68; in assay [1] (setting [2]), 5.60.

Take `CC(C)C[C@H](C(=O)N1Cc2cc(C(=O)N[C@@H](CSCC(N)=O)C(=O)NCCCCCC(=O)N[C@@H](CCCCNC(=O)c3ccc4c(c3)C(=O)OC43c4ccc(O)cc4Oc4cc(O)ccc43)C(N)=O)sc2C1)n1cc(CN2CCC[C@H]2C(=O)N[C@H](CC2CCCCC2)C(=O)N[C@@H](CSCC(N)=O)C(N)=O)nn1` [Compound 7-L0]: on streptavidin, the negative-log Kd (pKd) was 6.76.

For `CC(C)C[C@@H]1C(=O)N2Cc3cc(sc3C2)C(=O)N[C@H](C(=O)NCCCCCC(=O)N[C@@H](CCCCNC(=O)c2ccc3c(c2)C(=O)OC32c3ccc(O)cc3Oc3cc(O)ccc32)C(N)=O)CSC/C=C/CSC[C@@H](C(N)=O)NC(=O)[C@@H](CC2CCCCC2)NC(=O)[C@@H]2CCCN2Cc2cn1nn2` [Compound 7-L4], the pKd at streptavidin is < 5.30.

Take `CC(C)C[C@@H]1C(=O)N2Cc3cc(sc3C2)C(=O)N[C@H](C(=O)NCCCCCC(=O)N[C@@H](CCCCNC(=O)c2ccc3c(c2)C(=O)OC32c3ccc(O)cc3Oc3cc(O)ccc32)C(N)=O)CSCCS(=O)(=O)CS(=O)(=O)CCSC[C@@H](C(N)=O)NC(=O)[C@@H](CC2CCCCC2)NC(=O)[C@@H]2CCCN2Cc2cn1nn2` [Compound 7-L1]: on streptavidin, the pKd is < 5.30.

Consider `CC(C)C[C@@H]1C(=O)N2Cc3cc(sc3C2)C(=O)N[C@H](C(=O)NCCCCCC(=O)N[C@@H](CCCCNC(=O)c2ccc3c(c2)C(=O)OC32c3ccc(O)cc3Oc3cc(O)ccc32)C(N)=O)CSCc2ccc(cc2)CSC[C@@H](C(N)=O)NC(=O)[C@@H](CC2CCCCC2)NC(=O)[C@@H]2CCCN2Cc2cn1nn2` [Compound 7-L2], for which the pKd at streptavidin was < 5.30.

In the case of `C#CCN1CCC[C@H]1C(=O)N[C@H](CC(=O)N[C@@H](CSC1CC(=O)N(CCN2C(=O)CC(SC[C@H](NC(=O)C[C@H](Cc3ccccc3Cl)NC(=O)[C@@H](N)Cc3ccccc3Cl)C(=O)NCCCCCC(=O)N[C@@H](CCCCNC(=S)Nc3ccc4c(c3)C(=O)OC43c4ccc(O)cc4Oc4cc(O)ccc43)C(N)=O)C2=O)C1=O)C(N)=O)Cc1ccccc1Cl` (stereo partly shown) [Compound 22], the pIC50 in assay [1] (setting [2]) is 5.84.

Source of the values: paper PMC11972359, “Flexibility-tuning of dual-display DNA-encoded chemical libraries facilitates cyclic peptide ligand discovery” (Nature Communications, 2025).
